Data taken from US20100041594A1, “Use of Aplidine for the Treatment of Pancreatic Cancer” (Pharma Mar, S.A., priority 2001, published 2010).
Marks after values point to notes of the source that are not given here. Starred links: 1 amine or outer side, 2 acyl side, 3 side chain; linkers in the order of their positions; H or OH if unused. Positions of bridges follow the written chain, without caps; N, C: chain ends. Non-standard residues stand in square brackets, D forms with d. Residues, ends and D or L forms follow the SMILES beside them. *: point of attachment. X1 = CC[C@H](C)[C@@H](N[*:1])[C@@H](O)CC(=O)O[C@H](C(=O)[C@H](C)C(=O)[*:2])C(C)C; NMeY = CN[C@@H](Cc1ccc(O)cc1)C(=O)O; dNMeL = CN[C@H](CC(C)C)C(=O)O; Pyruvoyl = CC(=O)C(=O)*

Columns and labels:
[1] = Stability of aplidine solution and lyophilised dosage form; assay type: physicochemical
Protocol: In a currently preferred embodiment freeze-drying was performed from a […] solution of aplidine in 40% (v/v) tert-butanol in Water for Injection (Wfl) containing 25 mg/mL D-mannitol as bulking agent. […] Both reconstituted product and dilutions (up to 1:100 v/v) of the reconstituted product with normal saline appeared to be stable for at least 24 hours after preparation.

[2] = tested on: NP9 human pancreatic carcinoma; assay: NP9 human pancreatic carcinoma xenograft, primary tumour; assay type: in vivo, Nu/Nu Swiss mice; conditions: for Solid tumour weight (g) / Total tumour weight (g): 0.8 mg/kg q4d ip
Text: (§1) Aplidine is a new cyclic depsipeptide with anticancer activity in vitro and in vivo in different tumour types, but it has not been tested in pancreatic carcinoma. Nevertheless, this pathology has a poor prognosis because of difficult early diagnosis, aggressiveness and lack of effective systemic therapies. Most patients die of metastases present at diagnosis. We compared the antitumour effect of aplidine against 2 human pancreatic carcinomas, NP9 and NP18, using orthotopic (ORP) and subcutaneous (SC) tumour implantation models. […] METHODS: Groups of ten male Nu/Nu Swiss mice (4 wk old) were treated with vehicle or aplidine. To evaluate primary tumour response, ip aplidine was given, starting 2 weeks (wk) after implantation, at 0.8 mg/kg q4d for 4 wk (NP9) or at 0.8 mg/kg q4d for 6 wk, ceasing treatment the 4th and 5th wk (NP18). To evaluate the response of NP9 metastasis aplidine regime was 0.8 mg/kg q4d per 3 doses, starting 4 weeks after implantation. We measured final tumour weight, macroscopic viability (viable cortex/total tumour weight), microscopic necrosis, apoptotic induction and signal transduction. […] This effect was due to apoptotic induction leading to a reduced number of viable cells in both tumours. Apoptotic induction on NP18 was associated with PARP cleavage and reduced AKT activation, only in ORT-treated tumours. aplidine induced a decrease in cyclins B1 and D1 and FAK expression only in ORT NP9-treated tumours. […] CONCLUSIONS: The use of an ORT implantation model permitted the observation of the antitumour effect of aplidine on primary tumours and metastases of human pancreatic carcinomas. aplidine altered apoptotic and proliferative pathways, which could explain its antitumour effect.
(§2) We used two human pancreatic carcinomas (NP18 and NP9) perpetuated as orthotopic xenografts in nude mice. NP9 produce an extensive peritoneal dissemination 4-5 weeks after implantation (metastatic). We implanted these tumours in four week-old male Nu/Nu Swiss mice (Charles River), housed in autoclaved cages and provided y-ray sterilized bedding and food. They were anesthetized with 2,2,2-tribromoethanol (Sigma-Aldrich) and 10 mg fragments of each tumour from previous passages were implanted orthotopically (ORT, at the pancreas). Xenografted animals were randomly distributed in control (n=10) and experimental (n=10) groups just before treatment. We excluded animals bearing non palpable tumours after ORT implantation, or with tumour volumes lower than 0.13 cm^3 (0.5 cm in diameter). Treatment schedule depended on tumour growth rate. In the fast growing NP9 tumour, two schedules of treatment were used. In one, treatment started two weeks after tumour implantation, before peritoneal dissemination had occurred. Each animal in the experimental group received ip administrations of aplidine at a dose of 0.8 mg/Kg q4d per four weeks. In the other schedule, treatment started four weeks after tumour implantation, once peritoneal dissemination had occurred, with a regime of aplidine of 0.8 mg/Kg q4d per three doses. The existence of macroscopically visible implants was confirmed one day before the treatment begun, by the sacrifice of one extra animal. In the NP18 tumour, treatment started 4 weeks after tumour implantation and the schedule of aplidine was 0.8 mg/Kg q4d ip for 4 weeks, ceasing treatment for two weeks, and continuing with 0.8 mg/Kg q4d ip for two additional weeks. The animals in the corresponding control groups received i.p. administrations of vehicle following the same schedule. After implantation, and during treatment, mice were inspected twice a week and weighted weekly to monitor for compound toxicity.
(§3) At the end of treatment, animals were euthanized and dissemination recorded. Primary tumours were excised and weighted in all groups. Tumor aliquots were frozen down in liquid nitrogen or fixed in formaline. We counted the number of peritoneal implants in each animal and took samples for histological and molecular analysis. […]

[3] = tested on: NP18 human pancreatic carcinoma; assay: NP18 human pancreatic carcinoma xenograft, primary tumour; assay type: in vivo, Nu/Nu Swiss mice; conditions: for Total tumour weight (g): 0.8 mg/kg q4d ip
Text: as §1, §2, §3

NP9 peritoneal implants = assay: NP9 peritoneal metastases after orthotopic implantation; assay type: in vivo, Nu/Nu Swiss mice
Text: as §1, §2, §3

MDA-MB231 = conditions: aplidine 50 nmol/L; cited from earlier work
MCF-7 = conditions: aplidine 50 nmol/L; cited from earlier work
[4] = tested on: CT-1, CT-2 and HT-29 cell lines; conditions: CT-1, CT-2, HT-29; cited from earlier work
ornithine decarboxylase = biological target: T1, ornithine decarboxylase (Homo sapiens, UniProt P11926); conditions: all three cell lines; cited from earlier work
T1 construct: endogenous in cells; host or cells: CT-1, CT-2 and HT-29 colon cell lines
T1 sequence (P11926 1-461): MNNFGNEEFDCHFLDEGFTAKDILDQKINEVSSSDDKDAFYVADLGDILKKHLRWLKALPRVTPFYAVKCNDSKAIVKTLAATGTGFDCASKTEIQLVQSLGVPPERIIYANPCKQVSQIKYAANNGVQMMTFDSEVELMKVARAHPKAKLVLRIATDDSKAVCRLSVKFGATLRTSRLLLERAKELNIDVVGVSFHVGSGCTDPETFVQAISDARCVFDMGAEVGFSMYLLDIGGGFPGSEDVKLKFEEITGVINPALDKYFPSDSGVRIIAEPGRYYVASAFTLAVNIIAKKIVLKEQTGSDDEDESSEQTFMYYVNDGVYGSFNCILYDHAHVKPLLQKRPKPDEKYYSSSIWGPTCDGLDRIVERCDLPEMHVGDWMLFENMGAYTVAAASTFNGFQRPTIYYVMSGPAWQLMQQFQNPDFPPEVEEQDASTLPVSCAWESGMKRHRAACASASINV

[5] = tested on: Non-small cell lung cancer, breast cancer and melanoma cell lines; conditions: continuous exposure; cited from earlier work
human cancer xenografts = conditions: cited from earlier work
gastric tumours = conditions: 1.25 mg/kg; cited from earlier work
prostate tumour = conditions: 1.25 mg/kg; cited from earlier work
[6] = tested on: P388 leukaemia and B 16 melanoma; conditions: mouse, in vivo; cited from earlier work
lewis lung carcinomas = conditions: cited from earlier work
pancreatic tumour = conditions: 4 patients with pancreatic tumour, phase I; cited from earlier work

CC[C@H](C)[C@H]1NC(=O)[C@@H](NC(=O)[C@@H](CC(C)C)N(C)C(=O)[C@@H]2CCCN2C(=O)C(C)=O)[C@@H](C)OC(=O)[C@H](Cc2ccc(OC)cc2)N(C)C(=O)[C@@H]2CCCN2C(=O)[C@H](CC(C)C)NC(=O)[C@@H](C)C(=O)[C@H](C(C)C)OC(=O)C[C@@H]1O [aplidine] (Pyruvoyl-P[dNMeL]T[X1]LP[NMeY](Me); ester 3-C)
degradation under stress testing [1]: substantial degradation | active forms of caspases 3, 7 or 8 (Western blot) ([2]; NP9): No active forms of caspases 3, 7 or 8 were detected | FAK expression (Western blot) ([2]; NP9, ORT): downregulation of FAK | cyclin B1 and cyclin D1 expression (Western blot) ([2]; NP9, ORT): decreased expression of cyclin B1 and cyclin D1 | macroscopic appearance, invasion by primary tumour ([2]; NP9, ORT): did not invade other organs of the peritoneum | foci of non-viable/necrotic cells, share of each tumour ([2]; NP9, ORT treated): 75-100% | Solid tumour weight (g) ([2]; NP9, ORT): 3.04 ± 1.04^f g | Total tumour weight (g) ([2]; NP9, ORT): 3.72 ± 1.09^b g | Ki67 ([2]; NP9, ORT, viable tissue): downregulation | apoptosis (Hoescht nuclear staining) ([2]; NP9, ORT, viable tissue): significantly increased apoptosis | cyclin B1 and cyclin D1 levels (Western blot) ([2]; NP9, SC): no differences in cyclin B1 or cyclin D1 levels | Solid tumour weight (g) ([2]; NP9, SC): 0.87 ± 0.44^e g | Total tumour weight (g) ([2]; NP9, SC): 1.56 ± 0.8^a g | difference in total or solid tumour weight vs control ([2]; NP9, any site): no significant differences | ERK activation (Western blot) ([2]; NP9, both tumour sites): ERK activation was unaltered | size or macroscopic appearance of primary tumour ([3]; NP18): did not significantly change | AKT activation (Western blot) ([3]; NP18, ORT): Decrease AKT activation | PARP cleavage (Western blot) ([3]; NP18, ORT): PARP cleavage | caspases 3, 7 and 8 (Western blot) ([3]; NP18, ORT): activation of caspases 3, 7 and 8 | microscopic necrosis (H&E) ([3]; NP18, ORT treated vs ORT control): significantly higher level of necrosis | Total tumour weight (g) ([3]; NP18, ORT): 9.34 ± 1.3^d g | apoptosis (Hoescht nuclear staining) ([3]; NP18, ORT, viable tissue): significantly increased apoptosis | AKT, caspases 3, 7, 8 and PARP regulation (Western blot) ([3]; NP18, SC): did not alter the regulation of any of these proteins | Total tumour weight (g) ([3]; NP18, SC): 15.5 ± 5.3^c g | ERK activation (Western blot) ([3]; NP18, any site): No differences in ERK activation | difference in total or solid tumour weight vs control ([3]; NP18, any site): no significant differences | apoptotic nuclei per treated implant (Hoescht) (NP9 peritoneal implants; established metastases): 3-6 | Caspase-3 activation and PARP cleavage in metastases (NP9 peritoneal implants; mouse, in vivo): No activation of Caspase-3 nor PARP cleavage | necrosis in peritoneal implants (H&E) (NP9 peritoneal implants; mouse, in vivo): did not contain necrotic areas | peritoneal implants (NP9 peritoneal implants; treatment initiated before dissemination, 0.8 mg/Kg q4d four weeks): no peritoneal implants were observed in any animal | diameter of peritoneal implants (NP9 peritoneal implants; treatment started once metastases macroscopically evident): less than 1 mm | number of peritoneal implants per animal (NP9 peritoneal implants; treatment started once metastases macroscopically evident, 0.8 mg/Kg q4d three doses): 7-20 | ERK activation in metastases (NP9 peritoneal implants; vs control metastases): lower ERK activation | inhibition of growth (MDA-MB231): 17% | inhibition of growth (MCF-7): 47% | cytotoxic activity [4]: dose-dependent cytotoxic activity | ornithine decarboxylase activity (ornithine decarboxylase): decreased ornithine decarboxylase activity | concentration to which cell lines were sensitive [5]: >= 0.001 micromol/L | treated/control (T/C) tumour ratio (human cancer xenografts; 2.1 mg/kg): 9% | maximum tolerated dose (human cancer xenografts; mice bearing human cancer xenografts): 2.1 mg/kg | T/C (gastric tumours): 14% | T/C (prostate tumour): 25% | activity against implanted tumours [6]: active | optimal dose [6]: 160 micro/kg | activity in SC implanted lewis lung carcinomas (lewis lung carcinomas): active | tumour response of patients (pancreatic tumour): did not respond

CC[C@H](C)[C@H]1NC(=O)[C@@H](NC(=O)[C@@H](CC(C)C)N(C)C(=O)[C@@H]2CCCN2C(=O)C(C)O)[C@@H](C)OC(=O)[C@H](Cc2ccc(OC)cc2)N(C)C(=O)[C@@H]2CCCN2C(=O)[C@H](CC(C)C)NC(=O)[C@@H](C)C(=O)[C@H](C(C)C)OC(=O)C[C@@H]1O (some centres unmarked) [didemnin B, reference compound]
activity in SC implanted lewis lung carcinomas (lewis lung carcinomas): Unlike didemnin B, aplidine was active
